Experiment [1] has as its system porcine kidney-derived LLC-PK1 cells. The experiment is described as follows: Protective effect against cell injury of porcine kidney-derived LLC-PK1 cells (2), oxidized LDL-induced LDH leakage. The class given is cell-based. Here is the method: The oxidized LDL was prepared by placing 1 mg/ml of rabbit LDL in PBS (−) in the presence of 10 μM CuSO4 at 37° C. for 24 hours. Cell cultures were prepared by inoculating 1.25×10^4 cells/250 μl/well on a 48-well plate using M199 medium containing 3% FBS. Test compounds were dissolved or suspended in ethanol and added at a ratio of 1.25 μl/well 16 hours before or immediately before addition of the oxidized LDL to a concentration of 0.1, 1 or 10 μM in each well. The oxidized LDL was diluted twice with physiological saline and then added to cells at 62.5 μl/well to a concentration of 100 μg/ml and the cells were incubated for 6 hours after addition of the oxidized LDL. After the incubation, 162.5 μl of the culture medium was collected from each of the wells and measured for the lactate dehydrogenase (LDH) activity (Lactate Dehydrogenase (LD-L): SIGNA DIAGNOSTICS) which has leaked into the culture medium.
(§1) The cytoprotective effect was expressed as a % cytoprotection where the effect in wells containing the oxidized LDL but without any test compound is 0% and the effect in wells containing physiological saline in place of the oxidized LDL is 100%.
For the purpose of evaluating in vitro cytoprotective effect of the compounds of the present invention, protective effect against cell injury of porcine kidney-derived LLC-PK1 cells (ATCC-CRL-13921) induced by oxidized low-density lipoprotein (oxidized LDL) was examined in the same manner as in Test example 1.
Preparation of oxidized LDL and conditions for cell culture and addition of test compounds were the same as those in Test example 1, except that the oxidized LDL was not diluted with physiological saline and added to cells at 25 μl/well to a concentration of 91 μg/ml and the cells were incubated for 6 hours after addition of oxidized LDL. After the incubation, 150 μl of the culture medium was collected from each of the wells and measured for the lactate dehydrogenase (LDH) activity (Lactate Dehydrogenase (LD-L): SIGMA DIAGNOSTICS) which has leaked in the culture medium.
(In general: Release of lactate dehydrogenase indicates damage to the cell membrane.)

In experiment [2] the test system is cultured mesangial cells. The experiment is described as follows: Protective effect against cell injury of cultured mesangial cells, oxidized LDL-induced LDH leakage. The experiment is classed as cell-based, rats. Here is the method:
For the purpose of evaluating in vitro cytoprotective effect of the compounds of the present invention, protective effect against cell injury of cultured mesangial cells induced by oxidized low-density lipoprotein (LDL) was examined. The cells used were subcultures after 4 to 6 passages of the primary cultures of mesangial cells prepared from kidney of 4-week-old SD-strain male rats (Nippon Charles River Corp.).
The oxidized LDL was prepared by placing 1 mg/ml of rabbit LDL in PBS (−) in the presence of 10 μM CuSO4 at 37° C. for 24 hours. Cell cultures were prepared by inoculating 2.5×10^4 cells/250 μl/well on a 48-well plate using RPMI1640 medium containing 20% FBS. Immediately before addition of test compounds, the medium was replaced with RPMI1640 free from FBS. Test compounds were dissolved or suspended in ethanol and added at 1.25 μl/well 16 hours before or immediately before addition of the oxidized LDL to a concentration of 1, 3 or 10 μM in each well. Unlike Test example 1, the oxidized LDL was not diluted with physiological saline and added to cells at 25 μl/well to a concentration of 91 μg/ml and the cells were incubated for 8 hours after addition of the oxidized LDL. After the incubation, 150 μl of the culture medium was collected from each of the wells and measured for the lactate dehydrogenase activity (Lactate Dehydrogenase (LD-L): SIGMA DIAGNOSTICS) which has leaked in the culture medium.
as §1

[3] abbreviates: Sus scrofa, LLC-PK1; 0.1 μM; test compounds added 16 hours before addition of oxidized LDL; oxidized LDL 91 μg/ml, 6 hours; read-out: % cytoprotection 1).
The mark [4] stands for this setting: Sus scrofa, LLC-PK1; 0.1 μM; test compounds added immediately before addition of oxidized LDL; oxidized LDL 91 μg/ml, 6 hours; read-out: % cytoprotection 2).
[5] abbreviates: Sus scrofa, LLC-PK1; 1 μM; test compounds added 16 hours before addition of oxidized LDL; oxidized LDL 91 μg/ml, 6 hours; read-out: % cytoprotection 1).
Setting [6] is: Sus scrofa, LLC-PK1; 1 μM; test compounds added immediately before addition of oxidized LDL; oxidized LDL 91 μg/ml, 6 hours; read-out: % cytoprotection 2).
[7] abbreviates: Sus scrofa, LLC-PK1; 10 μM; test compounds added 16 hours before addition of oxidized LDL; oxidized LDL 91 μg/ml, 6 hours; read-out: % cytoprotection 1).
Where [8] appears, read: Sus scrofa, LLC-PK1; 10 μM; test compounds added immediately before addition of oxidized LDL; oxidized LDL 91 μg/ml, 6 hours; read-out: % cytoprotection 2).
The mark [9] stands for this setting: Rattus norvegicus, Mesangial cell; 1 μM; test compounds added 16 hours before addition of oxidized LDL; oxidized LDL 91 μg/ml, 8 hours; read-out: % cytoprotection 1).
[10] abbreviates: Rattus norvegicus, Mesangial cell; 1 μM; test compounds added immediately before addition of oxidized LDL; oxidized LDL 91 μg/ml, 8 hours; read-out: % cytoprotection 2).
[11] abbreviates: Rattus norvegicus, Mesangial cell; 3 μM; test compounds added 16 hours before addition of oxidized LDL; oxidized LDL 91 μg/ml, 8 hours; read-out: % cytoprotection 1).
The mark [12] stands for this setting: Rattus norvegicus, Mesangial cell; 3 μM; test compounds added immediately before addition of oxidized LDL; oxidized LDL 91 μg/ml, 8 hours; read-out: % cytoprotection 2).

Structures are written as SMILES. Read-outs that look alike come from different tables or passages of the source.

`CC1(C)Cc2c(c(C(C)(C)C)cc(O)c2C(C)(C)C)O1` [Example 4, 4,7-Di-t-butyl-5-hydroxy-2,2-dimethyl-2,3-dihydrobenzofuran]: the inhibition at 0.1 µM was determined as 11.3% in experiment [1] (setting [3]) and 14.4% in experiment [1] (setting [4]). For the same compound, the inhibition at 1 µM was 100% in experiment [1] (setting [5]), 99% in experiment [1] (setting [6]), 31.1 ± 5.4% in experiment [2] (setting [9]) and 32.5 ± 1.9% in experiment [2] (setting [10]). For the same compound, the figures for the inhibition at 10 µM in experiment [1] (setting [7]) and in experiment [1] (setting [8]) were 98.3% and 99.8%, respectively. The inhibition at 3 µM stood at 66.4 ± 5.9% in experiment [2] (setting [11]) and 54.3 ± 9.7% in experiment [2] (setting [12]).

As to `CC(C)(C)c1cc2c(cc1O)CC1(CCCCCC1)O2` [Example 7, 6-t-Butyl-5-hydroxy-2,3-dihydrobenzofuran-2-spiro-1′-cycloheptane], the results for the inhibition at 0.1 µM in experiment [1] (setting [3]) and in experiment [1] (setting [4]) were 19.1% and 14.7%, respectively. Besides, the inhibition at 1 µM in experiment [1] (setting [5]) is 104%; in experiment [1] (setting [6]) it was 104%; in experiment [2] (setting [9]) it was 19.3 ± 2.8%; in experiment [2] (setting [10]) it was 22 ± 1.9%. Further, the inhibition at 10 µM in experiment [1] (setting [7]) and in experiment [1] (setting [8]) was 105% throughout. The results for the inhibition at 3 µM in experiment [2] (setting [11]) and in experiment [2] (setting [12]) were 18.1 ± 4.1% and 24.5 ± 0.8%, respectively.

As to `CCCc1c(O)c(C(C)(C)C)cc2c1CC1(CCCCCC1)O2` [Example 9, 6-t-Butyl-5-hydroxy-4-n-propyl-2,3-dihydrobenzofuran-2-spiro-1′-cycloheptane], the inhibition at 0.1 µM in experiment [1] (setting [3]) was 12.9%; in experiment [1] (setting [4]), 11.5%. Further, the inhibition at 1 µM is 47.7% in experiment [1] (setting [5]), 58.9% in experiment [1] (setting [6]), 14.4 ± 5.1% in experiment [2] (setting [9]) and 29.6 ± 2% in experiment [2] (setting [10]). Also, the inhibition at 10 µM in experiment [1] (setting [7]) and in experiment [1] (setting [8]) was 104% in each case. Also, the inhibition at 3 µM was found to be 56.2 ± 9.3% in experiment [2] (setting [11]) and 46.3 ± 1.7% in experiment [2] (setting [12]).

Consider `CC(C)Cc1c(O)c(C(C)(C)C)cc2c1CC1(CCCCCC1)O2` [Example 11, 6-t-Butyl-5-hydroxy-4-(2-methylpropyl)-2,3-dihydrobenzofuran-2-spiro-1′-cycloheptane], for which the inhibition at 0.1 µM in experiment [1] (setting [3]) is -2.7%; in experiment [1] (setting [4]), -20.4%. Further, the inhibition at 1 µM was 53.4% in experiment [1] (setting [5]), 88.7% in experiment [1] (setting [6]), -3.5 ± 9.1% in experiment [2] (setting [9]) and 4.8 ± 5.1% in experiment [2] (setting [10]). Moreover, the inhibition at 10 µM in experiment [1] (setting [7]) stood at 102%; in experiment [1] (setting [8]) it was 103%. Also, the inhibition at 3 µM in experiment [2] (setting [11]) is 13.8 ± 7.8%; in experiment [2] (setting [12]), 41.3 ± 1%.

Regarding `C=CC(C)c1c(O)c(C(C)(C)C)cc2c1CC1(CCCCCC1)O2` (stereo not shown) [Example 12, 6-t-Butyl-5-hydroxy-4-(1-methyl-2-propenyl)-2,3-dihydrobenzofuran-2-spiro-1′-cycloheptane], the inhibition at 0.1 µM in experiment [1] (setting [3]) was -15.5%; in experiment [1] (setting [4]) it was -8.4%. Also, the inhibition at 1 µM in experiment [1] (setting [5]) turned out to be 77.9%; in experiment [1] (setting [6]) it was 79.4%; in experiment [2] (setting [9]), 11.8 ± 2.6%; in experiment [2] (setting [10]), 17.4 ± 4%. The inhibition at 10 µM in experiment [1] (setting [7]) and in experiment [1] (setting [8]) was 102% in each case. The inhibition at 3 µM in experiment [2] (setting [11]) is 37.9 ± 8.3%; in experiment [2] (setting [12]), 42.8 ± 3.7%.

With `CCC(C)c1c(O)c(C(C)(C)C)cc2c1CC1(CCCCCC1)O2` (stereo not shown) [Example 13, 6-t-Butyl-5-hydroxy-4-(1-methylpropyl)-2,3-dihydrobenzofuran-2-spiro-1′-cycloheptane], the inhibition at 0.1 µM in experiment [1] (setting [3]) amounted to 5.5%; in experiment [1] (setting [4]), 3.4%. Further, the inhibition at 1 µM in experiment [1] (setting [5]) was 13.6%; in experiment [1] (setting [6]), 9.9%; in experiment [2] (setting [9]) it was 1.7 ± 2.9%; in experiment [2] (setting [10]) it was -4.3 ± 5.1%. Besides, the inhibition at 10 µM in experiment [1] (setting [7]) and in experiment [1] (setting [8]) was 100% throughout. Moreover, the inhibition at 3 µM in experiment [2] (setting [11]) stood at 18.4 ± 9.2%; in experiment [2] (setting [12]) it was 11.1 ± 4.3%.

As to `CC(C)(C)c1cc2c(cc1O)CCO2` [Example 15, 6-t-Butyl-5-hydroxy-2,3-dihydrobenzofuran], the inhibition at 1 µM in experiment [2] (setting [9]) was -4 ± 3.5%; in experiment [2] (setting [10]) it was -14.6 ± 3.3%. The inhibition at 3 µM in experiment [2] (setting [11]) was 33.6 ± 11.5%; in experiment [2] (setting [12]), 5.4 ± 5.1%.

With `CCC1(CC)Cc2c(cc(C(C)C)c(O)c2C(C)C)O1` [Example 17, 2,2-Diethyl-5-hydroxy-4,6-diisopropyl-2,3-dihydrobenzofuran], the inhibition at 0.1 µM was determined as 40.5% in experiment [1] (setting [3]) and 22.1% in experiment [1] (setting [4]). Besides, the inhibition at 1 µM in experiment [1] (setting [5]) amounted to 99.9%; in experiment [1] (setting [6]), 101%. In addition, the inhibition at 10 µM in experiment [1] (setting [7]) came to 99.9%; in experiment [1] (setting [8]) it was 98.4%.

On to `CC(C)c1cc2c(c(C(C)C)c1O)CC(C)(C)O2` [Example 18, 5-Hydroxy-2,2-dimethyl-4,6-diisopropyl-2,3-dihydrobenzofuran], for which the inhibition at 0.1 µM is 12.1% in experiment [1] (setting [3]) and -1.9% in experiment [1] (setting [4]). For the same compound, the values for the inhibition at 1 µM in experiment [1] (setting [5]) and in experiment [1] (setting [6]) were 100% and 99.7%, respectively. For the same compound, the inhibition at 10 µM in experiment [1] (setting [7]) is 100%; in experiment [1] (setting [8]), 101%.

Take `Cc1c(O)c(C(C)(C)C)cc2c1CC(C)(C)O2` [Example 19, 6-t-Butyl-5-hydroxy-2,2,4-trimethyl-2,3-dihydrobenzofuran]: the inhibition at 0.1 µM in experiment [1] (setting [3]) came to 31.1%; in experiment [1] (setting [4]), 13.2%. For the same compound, the inhibition at 1 µM was 104% in experiment [1] (setting [5]) and 102% in experiment [1] (setting [6]). The inhibition at 10 µM in experiment [1] (setting [7]) and in experiment [1] (setting [8]) was 102% each time.

On to `CC(C)c1c(O)c(C(C)(C)C)cc2c1CC(C)(C)O2` [Example 20-(1), 6-t-Butyl-5-hydroxy-2,2-dimethyl-4-isopropyl-2,3-dihydrobenzofuran], for which the inhibition at 0.1 µM is -4.8% in experiment [1] (setting [3]) and -24% in experiment [1] (setting [4]). Besides, the inhibition at 1 µM in experiment [1] (setting [5]) and in experiment [1] (setting [6]) was 100% throughout. For the same compound, the inhibition at 10 µM in experiment [1] (setting [7]) is 104%; in experiment [1] (setting [8]) it was 100%.

`CC(C)c1cc2c(c(C(C)(C)C)c1O)CC(C)(C)O2` [Example 20-(2), 4-t-Butyl-5-hydroxy-2,2-dimethyl-6-isopropyl-2,3-dihydrobenzofuran]: the inhibition at 0.1 µM in experiment [1] (setting [3]) worked out at 95.3%; in experiment [1] (setting [4]), 61.9%. The inhibition at 1 µM was determined as 98.1% in experiment [1] (setting [5]) and 97.8% in experiment [1] (setting [6]). Also, the inhibition at 10 µM in experiment [1] (setting [7]) came out at 97.3%; in experiment [1] (setting [8]), 99.1%.

Values taken from US6403639B1, “2,3-dihydrobenzofuran derivatives” (Chugai Seiyaku Kabushiki Kaisha, priority 1997, dated 2002).
